Test system: solid tumors
Assay: Phase I pharmacological trial, iv single administration every three weeks
Type: in vivo, patients
Details: one patient suffering from gastrointestinal sarcoma, dose level 5.1 mg/m^2, iv infusion
Experimental: A phase I pharmacological trial was carried out to investigate the iv administration of the title compound given as a single administration every three weeks to patients with solid tumors.
The starting dose of 0.85 mg/m^2 was initially escalated in an accelerated design (100% dose increase, 1 patient/dose level) and then by a conventional dose escalation in 3-6 patient cohorts. 11 patients have been entered so far and 25 cycles have been evaluated for toxicity at dose levels of 0.85, 1.7, 3.4, 5.1 and 7.5 mg/m^2.

## C=C(Br)C(=O)Nc1cc(C(=O)Nc2cc(C(=O)Nc3cc(C(=O)Nc4cc(C(=O)NCCNC(=N)N)n(C)c4)n(C)c3)n(C)c2)n(C)c1.Cl [PNU 166196, N-(5-{[(5-{[(5-{[(2-{[amino(imino)methyl]amino}ethyl)amino]carbonyl}-1-methyl-1H-pyrrol-3-yl)amino]carbonyl}-1-methyl-1H-pyrrol-3-yl)amino]carbonyl}-1-methyl-1H-pyrrol-3-yl)-4-[(2-bromoacryloyl)amino]-1-methyl-1H-pyrrole-2-carboxamide hydrochloride]
  tumor response: partial response
